From US20160237406A1, “SEBOCYTES, SEBOCYTE CELL LINES AND APPLICATIONS THEREOF” (priority 2001, published 2016)

Tested on: immortalized sebocytes (SZ95) and clones
Experiment: Growth behavior / cell proliferation test (4-methylumbelliferyl heptanoate fluorescence assay)
Assay type: cell-based, human
Conditions: for proliferation response of clones stimulated by retinoids: other clones, corresponds to response of normal human epidermal keratinocytes; for proliferation response of clones stimulated by retinoids / proliferation response of clones inhibited by retinoids: 10^-7 M retinoid, 9 days, FIG. 9; for proliferation response of clones inhibited by retinoids: some clones, order 13-cis-retinoic acid>all-trans-retinoic acid>>Acitretin
Method: _Cells were seeded in 96 well culture plates at densities of 0.5 to 4×10^3 cell/well. Cell proliferation was assessed by the 4-methylumbelliferylheptanoatefluorescence assay and measured automatically (Zouboulis et al. Melanoma. Res. 1991; 1:91-95).
To this extent, on the day of evaluation, the culture medium was removed, the cells were washed twice with PBS and […] 100 μg solution of 4-methylumbelliferyl heptanoate (Sigma, Deisenhofen, Germany) in PBS were added to each well. The plates were then incubated at 37° C. for 30 minutes and released fluorescence was measured by a suitable fluorescence measuring device (Titertec-Fluoroscan II; Flow, Meckenheim, Germany). Fluorescence units were obtained at 355 nm excitation and 460 nm emission filters.
_5α-dihydrctestosterone (5α-DHT; Sigma) was dissolved in DMSO and subsequently in serum-free, phenol-free modified DMEM/Ham's F12-Medium (1:1) (Gibco-BRL) with 2 mM n-Acetyl-L-alanyl-L-glutamine which was supplemented with 5 ng/ml EGF, 50 μg/ml bovine pituary extract, 1 mg/ml fatty acid-free bovine serum albumine (Boehringer Mannheim) and 50 μg/ml gentamycine to obtain a final concentration of 10^−6 M 5α-DHT and 0.1% DMSO. 0.1% DMSO alone served as a control. The cells (0.5 to 2×10^3/well) were treated with 5α-DHT for 18 days.
For the treatment with retinoids, all-trans-retinoic acid, 13-cis-retinoic acid and acitretin were dissolved in DMSO and subsequently placed in serum-free modified DME-Medium/Ham's F12-Medium (1:1) with […] N-Acetyl-L-alanyl-L-glutamine which was supplemented with 5 ng/ml EGE, 50 μg/ml bovine pituary extract, 1 mg/ml fatty acid-free bovine serum albumine and 50·μg/ml gentamycine to obtain a final concentration of 10^−7 M retinoid and 0,1% DMSO. 0,1% DMSO alone served as a control. Retinoids were handled under dim amber light. The cells (0.5 to 1×10^3/well) were treated with the retinoids for 9 days.

Row | SMILES | effect on proliferation of the cells (10^-6 M 5α-DHT, serum-free medium, after the 8th day, vs control (p<0.05; p<0.01), FIG. 8) | population doubling time (exemplary sebocyte clone, seeding 2.000/well, serum-free medium supplemented with 10^-6 M 5α-DHT, 18 days, control 136 hours) [h] | proliferation response of clones stimulated by retinoids (serum-free medium) | proliferation response of clones inhibited by retinoids (serum-free medium)
1 | C[C@]12CCC(=O)C[C@@H]1CC[C@@H]1[C@@H]2CC[C@]2(C)[C@@H](O)CC[C@@H]12 [5α-DHT, 5α-dihydrctestosterone] | increased the proliferation of the cells significantly | 53.7 | – | –
2 | CC1=C(/C=C/C(C)=C/C=C/C(C)=C\C(=O)O)C(C)(C)CCC1 [13-cis-retinoic acid] | – | – | stimulated in proliferation | inhibition of proliferation
3 | COc1cc(C)c(/C=C/C(C)=C/C=C/C(C)=C/C(=O)O)c(C)c1C [Acitretin, acitretin] | – | – | – | inhibition of proliferation
4 | CC1=C(/C=C/C(C)=C/C=C/C(C)=C/C(=O)O)C(C)(C)CCC1 [all-trans-retinoic acid] | – | – | stimulated in proliferation | inhibition of proliferation
